# In patent publication US8097585B2, “Methods of treating inflammation by administration of heme oxygenase-1 and products of heme degradation” (priority 2002, dated 2012):
# Structures can show the parent of a compound that is named as a salt.
# Legend:
# [1] = test system: TNF-α; assay: Real time RT-PCR of graft muscularis after SITx, TNF-α; type: in vivo, LEW rats; conditions: BV treatment, 4 hours
# Experimental: Small Intestinal Transplantation. Orthotopic small intestinal transplantation (SITx) was performed in syngeneic Lewis rats. SITx with caval drainage was performed using a previously described procedure (Murase et al., in Handbook of Animal Models in Transplantation Research, Cramer et al., Eds. CRC Press, Boca Raton, Fla., pp. 203-213 (1994)). […] The graft was perfused via the aortic segment with 5 ml chilled Ringer's lactate solution, and the intestinal lumen was irrigated with 20 ml of cold saline solution containing 0.5% neomycin-sulfate (Sigma, St. Louis, Mo.). […]
# SYBR green real time RT-PCR. The effects of administration of biliverdin on transplant-induced pro-inflammatory and anti-inflammatory gene expression were assessed in muscularis extracts by RT-PCR Biliverdin ([…], i.p.) was administered to both the donor and recipient three hours preoperatively. […] Equal aliquots (5 μg) of total RNA from each sample were quantified by spectrophotometry (wavelength […]) and aliquoted at a concentration of 40 ng/μl. Peak mRNA expression was quantified in duplicate by SYBR Green two-step, real-time RT-PCR. […] Real-time PCR data were plotted as the ΔRn fluorescence signal versus the cycle number. […] Quantification of mRNA expression was normalized to GAPDH and calculated relative to control using the comparative CT method (Schmittgen et al., J. Biochem. Biophys. Methods 46(1-2):69-8, 2000). […]
# [2] = test system: HO-1; assay: HO-1 expression in colonic tissue during DSS-colitis (Western blot, semi-quantitative PCR); type: in vivo, C57BL/6 mice; conditions: CoPP 5 mg/kg i.p. daily, entire 7 day period
# Experimental: Western Blot Analysis. Tissue samples from the distal colon of the animals were removed and snap frozen with liquid nitrogen. The frozen tissue was ground thoroughly and homogenized in Ripa buffer supplemented with proteinase inhibitors. The protein concentration was determined by the Bio-Rad Dc Protein Assay™ according manufacturers instructions (Bio-Rad, Hercules, Calif.). Electrophoresis was performed under denaturing conditions according to Laemmli with 10% polyacrylamide gels by loading 35 μg protein. Proteins were transferred onto a polyvinyldifluoridine membrane (Immobilon P™; Millipore, Bedford, Mass.) by electroblotting. Proteins were then detected with rabbit polyclonal antibodies directed against human HO-1 (StressGen, Victoria, Canada) or β-tubulin (Boehringer Mannheim, Mannheim, Germany). Proteins were visualized using HRP-conjugated donkey anti-rabbit IgG or goat anti-mouse IgG (Pierce) and the ECL assay (Amersham Life Science, Arlington Heights, Ill.), according to manufacturer's instructions.
# Semi-Quantitative PCR. RNA was extracted using RNeasy Mini Kits (Qiagen Inc., CA, USA) and reverse transcribed into cDNA with the RNA PCR Kit (TaKaRa, PanVera, Madison, Wis., USA). […] PCR products (10-20 μl) were analyzed in an ethidium bromide-stained 1% agarose gel.
Structure (SMILES),upregulation of TNF-α mRNA caused by transplantation [1],HO-1 protein in the intestine [2]
"C=CC1=C(C)/C(=C/C2=NC(=C\c3[nH]c(/C=C4\NC(=O)C(C)=C4C=C)c(C)c3CCC(=O)O)/C(CCC(=O)O)=C2C)NC1=O [biliverdin, biliverdin dihydrochloride]",did not significantly change,
"C=CC1=C(C)c2cc3[n-]c(cc4nc(cc5[n-]c(cc1n2)c(C)c5CCC(=O)[O-])C(CCC(=O)[O-])=C4C)c(C)c3C=C.[Co+2].[H+].[H+] [CoPP, Cobalt protoporphyrin]",,consistently high levels of HO-1 protein
